Legend:
Candida albicans KE-2 [1] = assay: Inhibition test against pseudomycelium formation of Candida albicans; type: cell-based; conditions: minimum effective concentration preventing typical pseudomycelium formation, Eagle-MEM medium with 20 % calf serum, 1 x 10^6 yeast cells/ml, 18 hours at 37 °C, two fold dilution series; for minimal effective concentration: Candida albicans, KE2, read-out: Inhibition for Pseudomyselium Formation of Candida albicans (MEC, μg/ml)
Method: Inhibition test against psendomycelium formation of Candida albicans Candida albicans KE-2 was inoculated to Eagle-MEM medium (Nissan 2 made by Nissui Seiyaku, Ltd.) supplemented with 20 % calf serum so that its final inoculum of yeast cell might be 1 x 10^6 yeast cells per milliliter. The test compounds are added thereon in two fold dilution series. After incubation for 18 hours at 37 °C, the fungal growth in each drug concentration is smeared and fixed on a slide glass, and its morphological feature on the presence or absence of the psendomycelium formation is examined by a microscope following Giemsa staining. Minimum effective concentration (MEC, µg/ml) is defined as the lowest concentration of the compound which prevented typical pseudo- mycelium formation.

Candida albicans KE-2 [2] = assay: Therapeutic effect against experimental candidiasis in mice; type: in vivo, Jcl-ICR female mice; conditions: mouse survival ratio on the 5th day after infection, 50 mg/kg orally three times (0, 4 and 24 hours after infection), i.v. infection with 2 x 10^6 cells, eight mice per group; for responders at 50 mg/kg: Candida albicans, KE2, po, 120 h; for Therapeutic Effect (%): 50 mg/kg
Method: Therapeutic effect against experimental candidiasis in mice After Candida albicans KE-2 is incubated on Sabouraud's glucose agar at 28 °C for 48 hr., it is suspended in Sabouraud's glucose broth and the cells (2 ^x 10^6) are injected to a tail vein of Jcl-ICR female mice (4 weeks age; weight : 18 - 20 g). A suspension of the test compound in 2 % gum arabic is orally administered three times, immediately after infection of the yeast ( 0 hour), after 4 hours and after 24 hours, as a dosage of 50 mg/kg. Non-treated group is used as control. Eight mice per group are used in the control group and the treated group. All the mice in the control group died within 48 hours after infection. Therapeutic effect of the test compound is judged by mouse survival ratio on the 5th day after infection.

| Compound | Inhibition for Pseudomyselium Formation of Candida albicans (MEC, μg/ml) (Candida albicans KE-2 [1]) [µg/mL] | responders at 50 mg/kg (Candida albicans KE-2 [2]) [%] | minimal effective concentration (Candida albicans KE-2 [1]) [µg/mL] | Therapeutic Effect (%) (Candida albicans KE-2 [2]) |
| --- | --- | --- | --- | --- |
| COC(n1cncn1)C(O)(Cn1cncn1)c1ccc(F)cc1F (single isomer, unassigned) [Compound 21, 2-(2,4-Difluorophenyl)-1-methoxy-1,3-bis(1H-1,2,4-tri-azol-1-yl)-2-propanol] | 0.63 | 87.5 | – | – |
| COC(n1ccnc1)C(O)(Cn1cncn1)c1ccc(Cl)cc1 (single isomer, unassigned) [Compound 23] | – | – | 0.63 | – |
| COC(n1cncn1)C(O)(Cn1cncn1)c1ccc(F)cc1 (single isomer, unassigned) [Compound 24] | – | 87.5 | 1.25 | – |
| COC(n1cncn1)C(O)(Cn1cncn1)c1ccc(Cl)cc1Cl (single isomer, unassigned) [Compound 25] | – | 100 | 0.31 | – |
| COC(n1cncn1)C(O)(Cn1cncn1)c1ccc(Cl)cc1 (single isomer, unassigned) [Compound 26] | – | 100 | – | – |
| COC(n1cccn1)C(O)(Cn1cncn1)c1ccc(F)cc1 (single isomer, unassigned) [Compound 27] | – | 25 | – | – |
| COC(n1cccn1)C(O)(Cn1ccnc1)c1ccc(F)cc1 (single isomer, unassigned) [Compound 28] | 0.08 | – | – | 62.5 |
| COC(n1cccn1)C(O)(Cn1ccnc1)c1ccc(F)cc1F (single isomer, unassigned) [Compound 29] | – | – | 0.31 | 100.0 |
| COC(n1cccn1)C(O)(Cn1ccnc1)c1ccc(F)cc1F (single isomer, unassigned) [Compound 30] | 0.31 | – | – | 50.0 |
| COC(n1cccn1)C(O)(Cn1ccnc1)c1ccc(F)cc1 (single isomer, unassigned) [Compound 31] | 1.25 | – | – | 37.5 |
| OC(Cn1cncn1)(c1ccc(F)cc1)C(OCC(F)(F)F)n1cncn1 (single isomer, unassigned) [Compound 32] | – | 50 | – | – |
| CCOC(n1cncn1)C(O)(Cn1cncn1)c1ccc(F)cc1 (single isomer, unassigned) [Compound 33] | – | – | 1.25 | – |
| COC(n1cccn1)C(O)(Cn1cncn1)c1ccc(Cl)cc1 (single isomer, unassigned) [Compound 34] | – | – | 0.63 | – |
| COC(n1cccn1)C(O)(Cn1ccnc1)c1ccc(Cl)cc1 (single isomer, unassigned) [Compound 35] | – | 25 | 0.04 | – |
| COC(n1cccn1)C(O)(Cn1ccnc1)c1ccc(Cl)cc1 (single isomer, unassigned) [Compound 36] | 0.08 | – | – | 37.5 |
| COC(n1cccn1)C(O)(Cn1cncn1)c1ccc(Cl)cc1 (single isomer, unassigned) [Compound 37] | 0.63 | 62.5 | – | – |
| COC(n1cccn1)C(O)(Cn1cccn1)c1ccc(Cl)cc1 (single isomer, unassigned) [Compound 38] | – | 25 | 0.31 | – |
| COC(n1cncn1)C(O)(Cn1ccnc1)c1ccc(F)cc1F (single isomer, unassigned) [Compound 40] | – | 37.5 | – | – |
| COC(n1cncn1)C(O)(Cn1ccnc1)c1ccc(Cl)cc1Cl (single isomer, unassigned) [Compound 44] | – | 12.5 | – | – |
| COC(n1ccnc1C)C(O)(Cn1cncn1)c1ccc(Cl)cc1 (single isomer, unassigned) [Compound 45] | – | 37.5 | – | – |
| COC(n1cnc(C)c1)C(O)(Cn1cncn1)c1ccc(Cl)cc1 (single isomer, unassigned) [Compound 46] | – | 12.5 | 0.08 | – |
| COC(n1cncn1)C(O)(Cn1cncn1)c1ccc(F)cc1F (single isomer, unassigned) [Compound 47, 2-(2,4-Difluorophenyl)-1-methoxy-1,3-bis(1H-1,2,4-tri-azol-1-yl)-2-propanol] | 0.31 | – | – | – |
| COC(n1cccn1)C(O)(Cn1cncn1)c1ccc(F)cc1F (single isomer, unassigned) [Compound 49] | – | 75 | 0.31 | – |
| COC(n1cncn1)C(O)(Cn1cncn1)c1ccccc1F (single isomer, unassigned) [Compound 51] | – | – | 0.63 | – |
| CCOC(n1cncn1)C(O)(Cn1cncn1)c1ccc(Cl)cc1Cl (centres unmarked) [Compound 54] | – | 87.5 | – | – |

From patent EP0234499A2, “Antifungal azolylpropanol derivatives” (SHIONOGI SEIYAKU KABUSHIKI KAISHA, priority 1986, dated 1987)
